Laboratory results from ChEMBL document CHEMBL5614401 (Eur J Med Chem, 2024).

target: T1, Solute carrier family 22 member 12 (Homo sapiens, UniProt Q96S37); test: Inhibition of human URAT1 transfected in HEK293 cells by measuring 14C-uric acid uptake preincubated for 30 mins followed by 14--uric acid addition and measured after 15 mins by liquid scintillation counter analysis; format: cell-based; conditions: not given
T1 sequence (Q96S37 whole entry): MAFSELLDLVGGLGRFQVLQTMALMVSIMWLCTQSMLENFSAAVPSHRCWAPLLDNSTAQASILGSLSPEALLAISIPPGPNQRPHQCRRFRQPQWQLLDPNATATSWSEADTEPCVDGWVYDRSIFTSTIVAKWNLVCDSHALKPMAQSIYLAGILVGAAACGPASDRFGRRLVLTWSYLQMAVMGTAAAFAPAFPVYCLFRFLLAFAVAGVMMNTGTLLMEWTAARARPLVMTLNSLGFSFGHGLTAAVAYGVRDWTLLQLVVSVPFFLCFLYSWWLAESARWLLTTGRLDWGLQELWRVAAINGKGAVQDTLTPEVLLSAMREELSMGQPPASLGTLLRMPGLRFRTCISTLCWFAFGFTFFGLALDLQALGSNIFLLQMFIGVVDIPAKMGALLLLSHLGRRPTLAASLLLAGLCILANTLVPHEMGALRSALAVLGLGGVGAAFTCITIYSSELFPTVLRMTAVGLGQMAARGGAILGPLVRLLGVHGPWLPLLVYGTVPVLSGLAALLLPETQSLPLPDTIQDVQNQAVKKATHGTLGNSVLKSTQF

Structure (SMILES) | IC50 [µM]
C/C(=C\Cc1cccc2c1OC(c1csc3ccccc13)CC2=O)C(=O)O (stereo not drawn) | 0.95
Cc1ccc2c(c1C/C=C/S(=O)(=O)c1ccccc1)OC(c1ccsc1)CC2=O (stereo not drawn) | 4.43
O=C(O)/C=C/Cc1cccc2c1OC(c1ccc(Br)c3ccccc13)CC2=O (stereo not drawn) | 0.73
O=C(O)/C=C/Cc1cccc2c1OC(c1cccs1)CC2=O (stereo not drawn) | 2.5

Second part, the compound after the results:

IC50 [µM] | Structure (SMILES)
1.64 | C/C(=C\Cc1cccc2c1OC(c1cc3ccccc3s1)CC2=O)C(=O)O (stereo not drawn)
2.68 | C/C(=C\Cc1cccc2c1OC(c1ccc(O)cc1)CC2=O)C(=O)O (stereo not drawn)
4.24 | O=C(O)/C=C/Cc1cccc2c1OC(c1ccc(O)cc1)CC2=O (stereo not drawn)
2.11 | C/C(=C\Cc1c(O)ccc2c1OC(c1ccc(O)cc1)CC2=O)C(=O)O (stereo not drawn)

target: T1, Solute carrier family 22 member 12; test: Inhibition of URAT1 (unknown origin); conditions: not given

IC50 [µM] | Structure (SMILES)
0.04 | O=C(c1cc(Cl)c(O)c(Cl)c1)N1CS(=O)(=O)c2ccccc21 [DOTINURAD]
2.08 | CC(C)(Sc1ccncc1Cc1ccc(C#N)c2ccccc12)C(=O)O

target: T1, Solute carrier family 22 member 12; test: Inhibition of human URAT1 transfected in HEK293 cells by measuring 14C-uric acid uptake at 5 uM preincubated for 30 mins followed by 14--uric acid addition and measured after 15 mins by liquid scintillation counter analysis relative to control; format: cell-based; conditions: 0.25 h, time 45 min

Structure (SMILES) | inhibition at 5 µM [%]
CC(C)=CCc1c(O)ccc2c1OC(c1ccsc1)CC2=O (stereo not drawn) | 72.3
CC(C)=CCc1c(O)ccc2c1OC(c1cccs1)CC2=O (stereo not drawn) | 19.8
CC(C)=CCc1c(O)ccc2c1OC(c1cccc(F)c1)CC2=O (stereo not drawn) | 22.7
CC(C)=CCc1c(O)ccc2c1OC(c1ccc(Cl)cc1)CC2=O (stereo not drawn) | 11.3
CC(C)=CCc1c(O)ccc2c1OC(c1ccc(Br)cc1)CC2=O (stereo not drawn) | 32.2

Results, then the compound that gave them:

inhibition at 5 µM [%] | Structure (SMILES)
4.4 | CC(C)=CCc1c(O)ccc2c1OC(c1ccc(F)cc1)CC2=O (stereo not drawn)
13.4 | CC(C)=CCc1c(O)ccc2c1OC(c1cc3ccccc3s1)CC2=O (stereo not drawn)
32 | CC(C)=CCc1c(O)ccc2c1OC(c1csc3ccccc13)CC2=O (stereo not drawn)
